Results taken from PMC12084609, “Structural insights into small-molecule agonist recognition and activation of complement receptor C3aR” (The EMBO Journal, 2025).
Residue numbers refer to the chain shown, from its start. Values joined by “and” are separate entries in the source; they are usually repeats but may differ in a detail not shown here. Equal values may be shown once.

Experiments:
Assay type in all cases: cell-based
C3aR I421^7.39A = target: T1, C3aR I421^7.39A (Homo sapiens, UniProt Q16581, I421A); experiment: GloSensor-based cAMP assay, C3aR mutant I421A
T1 construct: expressed in transfected cells; host or cells: HEK293T
T1 sequence (Q16581 1-482 I421A): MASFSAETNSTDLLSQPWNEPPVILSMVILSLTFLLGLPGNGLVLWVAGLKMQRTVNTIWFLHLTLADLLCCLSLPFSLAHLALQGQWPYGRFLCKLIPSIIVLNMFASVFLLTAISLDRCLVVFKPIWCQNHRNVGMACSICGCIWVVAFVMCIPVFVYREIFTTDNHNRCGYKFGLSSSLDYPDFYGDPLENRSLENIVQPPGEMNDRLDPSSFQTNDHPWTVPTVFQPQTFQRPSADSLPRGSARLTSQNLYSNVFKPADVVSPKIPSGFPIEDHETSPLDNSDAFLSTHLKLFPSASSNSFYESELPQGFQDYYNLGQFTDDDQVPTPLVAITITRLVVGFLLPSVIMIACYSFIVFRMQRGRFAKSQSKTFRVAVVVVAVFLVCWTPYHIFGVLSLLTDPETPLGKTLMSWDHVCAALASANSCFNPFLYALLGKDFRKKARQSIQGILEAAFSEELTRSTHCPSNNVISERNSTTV
Description: (§1) HEK293T cells were seeded on 6-well plates (NEST) and transfected with pGlosensor™-22F plasmids (Promega) and pcDNA3.1 plasmids encoding C3aR or its mutants an with N-terminal FLAG tag. After 48 h, cells were detached with Accutase solution (Sigma-Aldrich) and washed with PBS, and resuspended in assay buffer (CO2-independent medium with 0.5 mg mL^−1D-luciferin). 100,000–200,000 cells were seeded on 96-well white bottom plates (SPL) and incubated at 37 °C for 45 min followed by 45 min incubation at room temperature. After 90 min of incubation, basal luminescence signals were recorded. In total, 25 μl of test ligand with various concentrations and 1 μM Forskolin (Sigma-Aldrich) were treated to the cells and luminescence signals were measured by Tristar 2 LB 942 multimode reader (Berthold). […] Relative luminescence unit (%) was calculated with the signal of wells treated with vehicle as 0% and the signal of wells treated with 1 μM Forskolin as 100% (DiRaddo et al, [2014]). Nonlinear regression was performed using a three-parameter logistic equation.

C3aR V103^3.33A = target: T2, C3aR V103^3.33A (Homo sapiens, UniProt Q16581, V103A); experiment: GloSensor-based cAMP assay, C3aR mutant V103A
T2 construct: expressed in transfected cells; host or cells: HEK293T
T2 sequence (Q16581 1-482 V103A): T1 sequence (Q16581 1-482 I421A) with V103A, A421I
Description: as §1

C3aR P99^3.29A = target: T3, C3aR P99^3.29A (Homo sapiens, UniProt Q16581, P99A); experiment: GloSensor-based cAMP assay, C3aR mutant P99A
T3 construct: expressed in transfected cells; host or cells: HEK293T
T3 sequence (Q16581 1-482 P99A): T1 sequence (Q16581 1-482 I421A) with P99A, A421I
Description: as §1

[1] = Dunnett's multiple comparisons test, WT minus mutant

`Cc1cc(C(c2ccc(Cl)cc2)c2ccc(Cl)cc2)sc1C(=O)N[C@@H](CCCNC(=N)N)C(=O)O` [JR14a, reference compound] was tested, and the “Mean Diff. of pIC50, WT vs. I421A” value (C3aR I421^7.39A; [1]) was 1.797, the remaining activity at 0.01 µM (C3aR I421^7.39A; I421A, Log[JR14a (M)] -8, single replicates, read-out: cAMP response (% Forskolin)) was 91.4% and the remaining activity at 0.001 µM (C3aR I421^7.39A; I421A, Log[JR14a (M)] -9, single replicates, read-out: cAMP response (% Forskolin)) was 92.7%. The remaining activity at 0.0001 µM (C3aR I421^7.39A; I421A, Log[JR14a (M)] -10, single replicates, read-out: cAMP response (% Forskolin)) was 96.4%, the remaining activity at 10 pM (C3aR I421^7.39A; I421A, Log[JR14a (M)] -11, single replicates, read-out: cAMP response (% Forskolin)) was 93.5% and the “reduction in ligand-induced signaling vs WT” value (C3aR I421^7.39A; I421^7.39A mutant) was 60 fold. The “ΔpIC50 ± SE of Diff.” value (C3aR I421^7.39A; I421^7.39A relative to WT C3aR) was -1.80 ± 0.06, the IC50 (C3aR I421^7.39A; IC50, I421^7.39A, dose-response plot) was 0.204 µM and the IC50 (C3aR I421^7.39A; pIC50 (Replicate), I421^7.39A, individual replicates) was 0.229 µM and 0.263 µM and 0.331 µM and 0.115 µM. The IC50 (C3aR I421^7.39A; pIC50 ± SEM (Mean), I421^7.39A, mean of independent experiments) was 0.219 µM, the “Mean Diff. of pIC50, WT vs. V103A” value (C3aR V103^3.33A; [1]) was 0.201 and the IC50 (C3aR V103^3.33A; IC50, V103^3.33A, dose-response plot) was 0.00893 µM. For the same compound, the “ΔpIC50 ± SE of Diff.” value (C3aR V103^3.33A; V103^3.33A relative to WT C3aR) was -0.20 ± 0.05, the IC50 (C3aR V103^3.33A; pIC50 (Replicate), V103^3.33A, individual replicates) was 0.0129 µM and 0.0148 µM and 0.00302 µM and the IC50 (C3aR V103^3.33A; pIC50 ± SEM (Mean), V103^3.33A, mean of independent experiments) was 0.00832 µM. The “Mean Diff. of pIC50, WT vs. P99A” value (C3aR P99^3.29A; [1]) was -0.103, the IC50 (C3aR P99^3.29A; IC50, P99^3.29A, dose-response plot) was 0.00408 µM and the remaining activity at 1 µM (C3aR P99^3.29A; P99A, Log[JR14a (M)] -6, single replicates, read-out: cAMP response (% Forskolin)) was 8.38%. It also gave a remaining activity at 0.1 µM (C3aR P99^3.29A; P99A, Log[JR14a (M)] -7, single replicates, read-out: cAMP response (% Forskolin)) of 9.9%, a remaining activity at 0.001 µM (C3aR P99^3.29A; P99A, Log[JR14a (M)] -9, single replicates, read-out: cAMP response (% Forskolin)) of 77.4% and a remaining activity at 0.0001 µM (C3aR P99^3.29A; P99A, Log[JR14a (M)] -10, single replicates, read-out: cAMP response (% Forskolin)) of 102%. The remaining activity at 10 pM (C3aR P99^3.29A; P99A, Log[JR14a (M)] -11, single replicates, read-out: cAMP response (% Forskolin)) was 104%, the “ΔpIC50 ± SE of Diff.” value (C3aR P99^3.29A; P99^3.29A relative to WT C3aR) was 0.10 ± 0.06 and the “decrease in IC50 values vs WT” value (C3aR P99^3.29A; P99^3.29 to Ala, relatively mild effect on downstream signaling) was < 10 fold. For the same compound, the IC50 (C3aR P99^3.29A; pIC50 (Replicate), P99^3.29A, individual replicates) was 0.0049 µM and 0.00525 µM and 0.00269 µM.
